In patent US20030017976A1, “Therapeutic properties of liposome-encapsulated immunomodulators” (priority 1998, published 2003):
Marks after values point to notes of the source that are not given here.

Assays:
human blood monocytes = assay: ELISAs for TNF-α, IL-1β and IL-6 in human blood monocytes; type: cell-based
Experimental: Blood-cells buff coats were obtained on the day of collection from the Gulf Coast Regional Blood Center (Houston, Tex.). The buffy coats were diluted with HBSS and layered on to 15 ml of prescreened entotoxin-free lymphocyte separation medium (Ficoll-Hypaque; density: 1.077). After 10 min of centrigugation at 1500×g, the mononuclear fractions were collected, washed once, and resuspended in 20 ml of elutriation medium (2% human albumin-100 U/mi penicillin and 100 μg/ml streptomycin in PBS). Monocyte-rich fractions were isolated by countercurrent elutriation using a JE-6B elutriation rotator (B3eckman) as described in detail previously (Fidler, I. et al. Prog. Clin. Biol. Res. (1989) 288:169). At a speed of 3000 rpm and flow rate of 41 ml/min, the monocyte fraction was obtained; it contained >90-95% monocytes as identified by nonspecific esterase staining morphological examination; they were >95% viable as measured by the trypan blue exclusion test. The cells were incubated in serum-free EMEM for 18 h prior to assays.
After overnight incubation in serum-free EMEM, monocytes plated at the density of 1×10^5/38-mm^2well /200 μl of EMEM (96-well plates) were treated as indicated in the Results section. The culture supernatants were harvested and used immediately or stored at −70° C. The supernatants were diluted at 1:5 or 1:10 and assayed for cytokines using ELISA kits according to the manufacturer's instructions.

human monocytes = assay: Western blot of tyrosine phosphorylation, JNK1 band shift, MAP kinase activation in monocytes; type: cell-based; settings: 20 min
Experimental: After two washes with PBS containing 1 mM Na3 VO4 and 5 mM EDTA, the cells were scraped into 0.1 ml lysis buffer (1% Triton X-100, 20 mM Tris pH 8.0, 137 MM NaCl, 10% glycerol, 1 mM Na3 VO4, 2 mM EDTA, 1 mM PMSF, 20 μM leupeptin, 0.15 U/ml aprotinin). The lysate was placed on ice for 20 min and then centrifuged at 14,000 rpm for 10 min at 4° C. The samples (50 μg) were mixed with sample buffer (62.5 mM Tris/HCl, pH 6.8, 2.3% SDS, 100 mM DTT, and 0.05% bromophenol blue), boiled and, separated on 10% SDS-PAGE. The protein was then transferred onto 0.45 μm nitrocellulose membranes. The filter was blocked with 3% BSA and 1% ovalbumin (ICN Biomedicals, Inc.) in TBS (20 mM Tris/HCl, pH 7.5, 150 mM NaCl), probed with antibodies as indicated in the Results in TTBS (TBS containing 0.1% Tween 20), incubated with a second antibody in the buffer, and visualized by the ECL Western blotting detection system (Dong, Z., et al. J Exp. Med. (1993) 177:1071; Dong, Z. et al. J. Leukoc. Biol. (1993) 58:725).

C57BL/6 mice = assay: Prevention of CPT-11 induced intestinal damage and morbidity by oral immunomodulator; type: in vivo, mouse; settings: oral saline or JBT3002 0.1, 1.0 and 10 μg/dose in PC liposomes, then CPT-11 100 mg/kg i.p. 4 days
Experimental: Experimental Design and Methods. […] Tissue was harvested 7 days after the last injection (small intestine and colon distal to the cecum). Histology was prepared. Some mice were monitored for the presence of drug toxicity.
Example 6 has shown that 100, 150, and 200 mg/kg at 4 consecutive i.p. administrations are highly toxic to C57BL/6 mice.

TG-Mø from C57BL/6 mice = assay: NO production in TG macrophages by free-form and tablet JBT 3002; type: cell-based, mouse; settings: 24 hr
Experimental: Preparation of tablet to free-form in water. Tablet placed in 10 ml sterile, pyrogen-free water for 2-3 min with shaking at room temperature, then 10 ml more water added using Lot PCOO2.115. At 100 μg/tablet, this gave 5 ug/ml active material. Solution opaque with “carrier”-appearing material. Settled to bottom. Placed at 37° C. for about 5 min. pH tested at 8.0. Two aliquots of 10 ml taken. One aliquot was taken to pH 1.5 by a single drop of concentrated HCl. Both samples were placed in a water bath at 37° C. for 30 min. The low pH sample was restored to pH 7.7 with NaOH (took about 5 drops of the NaOH, IN solution). The samples were brought to 50 ml by addition of water, and the final pH was 8.0 for the original and 7.43 for the low pH sample. The solutions were still slightly opaque and filtering with a 0.2 micron filter cleared the solution. Aliquots of about 25 ml were measured in an assay for NO production by macrophages and testing of the working dilution for endotoxin.

IL-15 = assay: Ileum and liver lesion histology, BrdUrd and IL-15 expression after JBT 3002 and CPT-11; type: in vivo, mouse; settings: mouse, in vivo
Experimental: BALB/c mice were injected with CT-26 colon cancer cells into the spleen. […] Four days after the last injection of CPT-11, some mice were killed and their ileum was harvested and prepared for histology, immunohistochemistry, and molecular biology analyses.

CT-26 colon carcinoma = assay: Therapy of experimental liver metastasis of CT-26 colon carcinoma with CPT-11 and oral JBT 3002
[1] = Table 15, oral JBT 3002 0.05 μg/dose 3 consecutive days and/or CPT-11 100 mg/kg 4 daily i.p., day 21
[2] = Table 16, oral JBT3002 0.05 μg dose thrice weekly 3 weeks and/or CPT-11 100 mg/kg i.p. once a week, day 24

N-hexadecanol-S-[2(R)-3-diodecanoyloxypropyl]-L-cysteinyl-L-alanyl-D-isoglutaminyl-glycyl-taurine sodium salt [JBT3002]
incubation time at which TNF-α protein was detected (human blood monocytes; free-form JBT3002 1 ng/ml or MLV-JBT3002 100 nmol/well of 1 mg/300 μmol lipid): 2 h | concentration range inducing TNF-α production (human blood monocytes; monocytes treated for 8 h): 0.001 to 10 ng/mL | serum dependence of cytokine production (human blood monocytes; serum-free EMEM vs 5% FBS): not significantly altered in the absence of serum | potency in triggering intracellular signaling pathways (human monocytes): significantly more potent than LPS | intestinal toxicity (histology) (C57BL/6 mice): the intestines were normal | nitrite (TG-Mø from C57BL/6 mice; Table 17, JBT 0.003 ng/ml, IFN-γ (10 U/ml)): 17.5 µM | nitrite (TG-Mø from C57BL/6 mice; Table 17, JBT 0.003 ng/ml, medium): 0 µM | nitrite (TG-Mø from C57BL/6 mice; Table 17, JBT 0.016 ng/ml, IFN-γ (10 U/ml)): 33.7 µM | nitrite (TG-Mø from C57BL/6 mice; Table 17, JBT 0.016 ng/ml, medium): 0 µM | nitrite (TG-Mø from C57BL/6 mice; Table 17, JBT 0.08 ng/ml, IFN-γ (10 U/ml)): 41 µM | nitrite (TG-Mø from C57BL/6 mice; Table 17, JBT 0.08 ng/ml, medium): 0 µM | nitrite (TG-Mø from C57BL/6 mice; Table 17, JBT 0.4 ng/ml, IFN-γ (10 U/ml)): 44.7 µM | nitrite (TG-Mø from C57BL/6 mice; Table 17, JBT 0.4 ng/ml, medium): 0 µM | nitrite (TG-Mø from C57BL/6 mice; Table 17, JBT 2 ng/ml, IFN-γ (10 U/ml)): 53.1 µM | nitrite (TG-Mø from C57BL/6 mice; Table 17, JBT 2 ng/ml, medium): 0 µM | nitrite (TG-Mø from C57BL/6 mice; Table 17, JBT 10 ng/ml, IFN-γ (10 U/ml)): 60.9* μM | nitrite (TG-Mø from C57BL/6 mice; Table 17, JBT 10 ng/ml, medium): 8.4 µM | nitrite (TG-Mø from C57BL/6 mice; Table 18, JBT3002 0.0001 ng/ml, 10 U/ml IFN-γ): 0 | nitrite (TG-Mø from C57BL/6 mice; Table 18, JBT3002 0.0001 ng/ml, medium): 0 | nitrite (TG-Mø from C57BL/6 mice; Table 18, JBT3002 0.001 ng/ml, 10 U/ml IFN-γ): 8.5 | nitrite (TG-Mø from C57BL/6 mice; Table 18, JBT3002 0.001 ng/ml, medium): 0 | nitrite (TG-Mø from C57BL/6 mice; Table 18, JBT3002 0.01 ng/ml, 10 U/ml IFN-γ): 19.5 | nitrite (TG-Mø from C57BL/6 mice; Table 18, JBT3002 0.01 ng/ml, medium): 0 | nitrite (TG-Mø from C57BL/6 mice; Table 18, JBT3002 0.1 ng/ml, 10 U/ml IFN-γ): 27.7 | nitrite (TG-Mø from C57BL/6 mice; Table 18, JBT3002 0.1 ng/ml, medium): 0 | nitrite (TG-Mø from C57BL/6 mice; Table 18, JBT3002 1 ng/ml, 10 U/ml IFN-γ): 37.7 | nitrite (TG-Mø from C57BL/6 mice; Table 18, JBT3002 1 ng/ml, medium): 0 | nitrite (TG-Mø from C57BL/6 mice; Table 18, JBT3002 10 ng/ml, 10 U/ml IFN-γ): 47.1 | nitrite (TG-Mø from C57BL/6 mice; Table 18, JBT3002 10 ng/ml, medium): 0.5 | expression of IL-15 in the ileum (IL-15): restores or augments this expression | dose producing similar therapeutic effects as 1.0 μg/dose of MLV-JBT 3002 (CT-26 colon carcinoma; Table 11): 0.01 μg/dose | Liver metastasis Incidence (CT-26 colon carcinoma; [1]): 9/10 | Liver weight (CT-26 colon carcinoma; [1]): 1.6 ± 0.2^e g | Spleen tumor Incidence (CT-26 colon carcinoma; [1]): 10/10 | Spleen tumor Mean tumor volume (CT-26 colon carcinoma; [1]): 88 ± 34^f mm^3 | Liver metastasis Incidence (CT-26 colon carcinoma; [2]): 9/10 | Liver weight (CT-26 colon carcinoma; [2]): 4.2 ± 1.6 g | Spleen tumor Incidence (CT-26 colon carcinoma; [2]): 8/10 | Spleen tumor Mean tumor volume (CT-26 colon carcinoma; [2]): 241 ± 84 mm^3 | potency relative to liposomal formulation (CT-26 colon carcinoma; Tables 12 and 14): more potent than liposomal formulation
